{"source": "patent US20250057836A1", "about": "“Compositions And Methods Targeting G12 Signaling For Bronchodilator Therapy” (Rutgers, The State University of New Jersey, priority 2017, published 2025)", "key": {"[1]": {"system": "AKT phosphorylation at S473 (pAKT)", "assay": "Immunoblot of AKT phosphorylation in HASMCs", "format": "cell-based, human", "description": "Isolation and culture of HASMC. Human lungs were received from the National Disease Research Interchange (Philadelphia, PA, USA) and from the International Institute for the Advancement of Medicine (Edison, NJ, USA) and HASM cells were derived from the tracheas. […] Culture of HASM cells was conducted as described previously (Panettieri et al., 1989a). Briefly, cells were cultured in Ham's F-12 medium supplemented with 100 U mL^−1 penicillin, 0.1 mg mL^−1, streptomycin, 2.5 mg mL^−1 amphotericin B and 10% FBS. Medium was replaced every 72 hours. HASM cells were only used during subculture passages 1-4 due to the strong expression of native contractile proteins (Panettieri et al., 1989b). In pertussis toxin studies, cells were treated with 1 μg/ml of pertussis toxin for 18 hours. […]\nImmunoblot analysis. […] Phosphorylation of MYPT1, MLC and AKT were assessed, and band densities were normalized to GAPDH, total MYPT1, total MLC, or total AKT band density.\nStatistical analysis. […] For experiments comparing agonist responses in primary cells, conditions were all normalized to the basal condition and subsequently analyzed statistically. GraphPad Prism software (La Jolla, CA, USA) was used to determine statistical significance evaluated by Student's unpaired t-test for two groups or ANOVA with Bonferroni post-test for 3 or more groups. […]"}, "[2]": {"system": "isoproterenol-mediated cAMP production", "assay": "cAMP assay in HASMCs", "format": "cell-based, human", "conditions": "pertussis toxin 18 h, 1 μg/ml; 306±23 fold without PTX", "protocol": "Isolation and culture of HASMC. Human lungs were received from the National Disease Research Interchange (Philadelphia, PA, USA) and from the International Institute for the Advancement of Medicine (Edison, NJ, USA) and HASM cells were derived from the tracheas. […] Culture of HASM cells was conducted as described previously (Panettieri et al., 1989a). Briefly, cells were cultured in Ham's F-12 medium supplemented with 100 U mL^−1 penicillin, 0.1 mg mL^−1, streptomycin, […] amphotericin B and 10% FBS. Medium was replaced every 72 hours. HASM cells were only used during subculture passages 1-4 due to the strong expression of native contractile proteins (Panettieri et al., 1989b). In pertussis toxin studies, cells were treated with 1 μg/ml of pertussis toxin for 18 hours. All pharmacologic inhibitors were used with DMSO as the vehicle at a final concentration of 0.1% and were used to treat HASMC 30 minutes prior to agonist stimulation.\ncAMP Assay. HASMCs were seeded in a 24-well plate until about 80% confluent and serum-deprived overnight. Cells were stimulated and lysed using cAMP-Screen System ELISA from Applied Biosystems (Bedford, MA, USA). Experiment was conducted according to manufacturer's protocol."}, "[3]": {"system": "human precision-cut lung slices (hPCLS)", "assay": "hPCLS airway dilation assay", "format": "cell-based"}}, "note": "“Also recorded” adds a separate entry of the source. Where a name gives a salt, the structure may show the parent alone."}
{"compound": "pertussis toxin", "values": [{"measurement": "effect on carbachol-induced AKT phosphorylation compared to vehicle", "setting": "[1]; pertussis toxin 18 h, 1 μg/ml before carbachol 10 μM 10 min, vehicle 0.01% DMSO", "result": "little effect"}, {"measurement": "isoproterenol-mediated cAMP elevation in the presence of carbachol (fold over basal)", "setting": "[2]", "result": "461±37", "unit": "fold"}]}
{"compound": "COc1ccc(CC(C)NCC(O)c2ccc(O)c(NC=O)c2)cc1", "note": "(centres unmarked) [Formoterol, formoterol fumarate dihydrate]", "values": [{"measurement": "EC50", "setting": "[3]; Homo sapiens, read-out: log EC50, reversal of carbachol-induced bronchoconstriction (converted)", "result": 501, "unit": "nM"}]}
{"compound": "rhosin", "values": [{"measurement": "carbachol-induced phosphorylation of AKT (fold over basal)", "setting": "[1]; primary HASMCs, rhosin 10 μM 30 minutes, carbachol 10 μM 10 min, vehicle 4.4±0.8 fold", "result": "0.6±0.1", "unit": "fold"}, {"measurement": "bronchodilation of carbachol-preconstricted hPCLS", "setting": "[3]; increasing doses of rhosin after carbachol, compared with formoterol", "result": "comparable to formoterol; also recorded: reverses carbachol-induced bronchoconstriction in a dose-dependent manner"}]}
